Columns and labels:
hER = biological target: T1, hER (Homo sapiens, UniProt P03372); assay: Cotransfection assay, ER antagonist; format: cell-based; details: read-out: ER Potency Antag
T1 sequence (P03372 1-595): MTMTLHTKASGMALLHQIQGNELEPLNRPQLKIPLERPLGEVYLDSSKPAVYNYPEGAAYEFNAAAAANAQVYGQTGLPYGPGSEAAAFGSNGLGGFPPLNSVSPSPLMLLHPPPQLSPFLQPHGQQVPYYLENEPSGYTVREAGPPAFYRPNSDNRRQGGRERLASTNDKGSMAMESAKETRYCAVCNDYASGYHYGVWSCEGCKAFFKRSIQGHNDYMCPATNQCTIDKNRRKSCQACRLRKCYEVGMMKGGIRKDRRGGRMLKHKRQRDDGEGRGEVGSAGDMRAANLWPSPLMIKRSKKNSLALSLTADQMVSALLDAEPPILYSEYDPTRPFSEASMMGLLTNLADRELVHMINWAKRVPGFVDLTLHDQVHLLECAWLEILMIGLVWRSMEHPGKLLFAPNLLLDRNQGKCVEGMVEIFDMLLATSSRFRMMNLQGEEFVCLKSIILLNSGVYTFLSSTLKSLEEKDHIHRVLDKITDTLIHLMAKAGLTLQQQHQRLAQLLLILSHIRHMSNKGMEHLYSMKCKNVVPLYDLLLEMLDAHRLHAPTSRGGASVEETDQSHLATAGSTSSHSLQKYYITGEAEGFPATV
Source text: (§1) The cotransfection assay provides a method for identifying functional agonists and partial agonists that mimic, or antagonists that inhibit, the effect of native hormones, and for quantifying their activity for responsive intracellular receptor (IR) proteins. In this regard, the cotransfection assay mimics an in vivo system in the laboratory. Importantly, activity in the cotransfection assay correlates very well with known in vivo activity, such that the cotransfection assay functions as a qualitative and quantitative predictor of a tested compound's in vivo pharmacology.
(§2) In the cotransfection assay, a cloned cDNA for an IR (e.g., human PR, AR or GR) under the control of a constitutive promoter (e.g., the SV 40 promoter) is introduced by transfection (a procedure to induce cells to take up foreign genes) into a background cell substantially devoid of endogenous IRs. This introduced gene directs the recipient cells to make the IR protein of interest. A second gene is also introduced (cotransfected) into the same cells in conjunction with the IR gene. This second gene, comprising the cDNA for a reporter protein, such as firefly luciferase (LUC), is controlled by an appropriate hormone responsive promoter containing a hormone response element (HRE). This reporter plasmid functions as a reporter for the transcription-modulating activity of the target IR. Thus, the reporter acts as a surrogate for the products (mRNA, then protein) normally expressed by a gene under control of the target receptor and its native hormone.
(§3) The cotransfection assay can detect small molecule agonists or antagonists of target IRs. Exposing the transfected cells to an agonist ligand compound increases reporter activity in the transfected cells. This activity can be conveniently measured, e.g., by increasing luciferase production, which reflects compound-dependent, IR-mediated increases in reporter transcription. […] Increasing concentrations of a suspected antagonist will decrease the reporter signal (e.g., luciferase production). The cotransfection assay is therefore useful to detect both agonists and antagonists of specific IRs. Furthermore, it determines not only whether a compound interacts with a particular IR, but whether this interaction mimics (agonizes) or blocks (antagonizes) the effects of the native regulatory molecules on target gene expression, as well as the specificity and strength of this interaction.

hGR = biological target: T2, hGR (Homo sapiens, UniProt P04150); assay: Cotransfection assay, GR antagonist; format: cell-based; details: read-out: GR Potency Antag
T2 sequence (P04150 1-777): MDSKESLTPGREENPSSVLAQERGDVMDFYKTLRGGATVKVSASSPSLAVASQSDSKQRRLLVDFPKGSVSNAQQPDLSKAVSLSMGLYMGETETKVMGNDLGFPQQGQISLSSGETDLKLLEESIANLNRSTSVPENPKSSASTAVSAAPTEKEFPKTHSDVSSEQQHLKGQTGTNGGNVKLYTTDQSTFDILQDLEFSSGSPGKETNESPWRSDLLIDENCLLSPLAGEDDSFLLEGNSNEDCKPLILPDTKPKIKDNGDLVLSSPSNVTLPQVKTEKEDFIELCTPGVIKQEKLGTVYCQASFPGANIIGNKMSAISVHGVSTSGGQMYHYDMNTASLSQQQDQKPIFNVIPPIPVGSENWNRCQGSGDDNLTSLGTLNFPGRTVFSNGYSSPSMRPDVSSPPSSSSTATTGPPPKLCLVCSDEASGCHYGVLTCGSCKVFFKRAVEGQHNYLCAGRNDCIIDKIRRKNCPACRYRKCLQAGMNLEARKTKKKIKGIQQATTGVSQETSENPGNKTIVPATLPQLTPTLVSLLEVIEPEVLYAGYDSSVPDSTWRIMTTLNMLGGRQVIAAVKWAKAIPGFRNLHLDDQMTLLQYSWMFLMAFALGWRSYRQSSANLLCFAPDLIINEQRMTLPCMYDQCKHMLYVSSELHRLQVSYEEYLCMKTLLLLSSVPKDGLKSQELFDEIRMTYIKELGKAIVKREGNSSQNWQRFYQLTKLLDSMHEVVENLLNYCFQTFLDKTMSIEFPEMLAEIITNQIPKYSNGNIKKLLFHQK
Source text: as §1, §2, §3

hPR-A = biological target: T3, hPR-A (Homo sapiens, UniProt P06401); assay: PR receptor binding assay
T3 sequence (P06401 1-769 isoform P06401-2): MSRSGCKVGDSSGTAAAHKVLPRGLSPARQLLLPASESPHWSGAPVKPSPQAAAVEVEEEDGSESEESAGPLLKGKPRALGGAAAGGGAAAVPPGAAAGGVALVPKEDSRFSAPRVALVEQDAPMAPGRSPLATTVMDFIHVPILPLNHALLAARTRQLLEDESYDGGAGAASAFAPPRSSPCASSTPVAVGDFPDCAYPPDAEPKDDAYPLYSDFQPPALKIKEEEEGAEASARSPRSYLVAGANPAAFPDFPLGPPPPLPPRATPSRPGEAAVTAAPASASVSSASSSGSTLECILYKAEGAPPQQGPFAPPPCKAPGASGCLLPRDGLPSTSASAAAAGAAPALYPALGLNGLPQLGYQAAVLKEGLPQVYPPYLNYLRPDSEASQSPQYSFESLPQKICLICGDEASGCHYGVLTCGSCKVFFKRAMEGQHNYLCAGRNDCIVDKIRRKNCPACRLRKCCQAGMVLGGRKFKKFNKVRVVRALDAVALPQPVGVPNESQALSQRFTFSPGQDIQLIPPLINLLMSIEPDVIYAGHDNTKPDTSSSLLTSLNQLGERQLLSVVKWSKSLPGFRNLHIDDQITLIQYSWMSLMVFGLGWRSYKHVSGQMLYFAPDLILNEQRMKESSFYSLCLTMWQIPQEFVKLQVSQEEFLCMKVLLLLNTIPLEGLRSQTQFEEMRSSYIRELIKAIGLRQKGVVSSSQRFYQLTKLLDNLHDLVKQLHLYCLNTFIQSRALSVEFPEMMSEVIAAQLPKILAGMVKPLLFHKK

In the case of `CC1(C)OC(=O)Nc2ccc3c(c21)COc1c(F)cc(C=O)cc1-3` [Compound 24, 7-fluoro-9-formyl-4,4-dimethyl-5H-chromeno[3,4-f]-1,3-benzo[d]oxazin-2-one], the IC50 (hER) is reported as > 10 µM, the IC50 (hGR) is reported as > 10 µM and the Ki (hPR-A) is reported as 0.181 µM.

In the case of `CC1(C)OC(=O)Nc2ccc3c(c21)COc1c(F)cccc1-3` [Compound 14, 7-Fluoro-4,4-dimethyl-5H-chromeno[3,4-f]-1,3-benzo[d]oxazin-2-one], the IC50 (hER) is reported as > 10 µM, the IC50 (hGR) is reported as > 10 µM and the Ki (hPR-A) is reported as 0.172 µM.

For `CC1(C)OC(=O)Nc2ccc3c(c21)COc1c(F)cc(Br)cc1-3` [Compound 20, 9-Bromo-7-fluoro-4,4-dimethyl-5H-chromeno[3,4-f]-1,3-benzo[d]oxazin-2-one], the IC50 (hER) was > 10 µM, the IC50 (hGR) was > 10 µM and the Ki (hPR-A) was 0.017 µM.

With `CC1(C)OC(=O)Nc2ccc3c(c21)COc1c(F)cc(C#N)cc1-3` [Compound 26, 9-cyano-7-fluoro-4,4-dimethyl-5H-chromeno[3,4-f]-1,3-benzo[d]oxazin-2-one] the IC50 (hER) was > 10 µM, the IC50 (hGR) was > 10 µM and the Ki (hPR-A) was 0.02 µM.

`CC1(C)OC(=O)Nc2ccc3c(c21)COc1c(F)cc(C=NO)cc1-3` [Compound 25, 7-fluoro-9-hydroxyiminomethyl-4,4-dimethyl-5H-chromeno[3,4-f]-1,3-benzo[d]oxazin-2-one] was tested, and the IC50 (hER) was > 10 µM, the IC50 (hGR) was > 10 µM and the Ki (hPR-A) was 0.065 µM.

From patent US6358947B1 (American Home Products Corporation, priority 1999, dated 2002)
